The target of one assay is RON (Homo sapiens, UniProt Q04912). As to the kind of experiment: Test B: HTRF RON test in 96-well format. The assay is classed as biochemical. The method, then: B) HTRF RON Test in 96-Well Format
The inhibitory potency (IC50) of molecules on the enzymatic activity of kinase phosphorylation RON is determined by the HTRF technique. The activity of the kinase is evaluated by measuring the phosphorylation of the substrate polyGAT by the enzyme, in the presence of ATP.
Final RON 5 nM is incubated in the presence of the molecule to be tested (for a final concentration range from 0.17 nM to 10 μM, final DMSO 3%) in buffer MOPS 10 mM pH 7, DTT 1 mM, Tween 20 0.01%. This pre-incubation is performed in 96 half-well black plates in a volume of 35 μl for 30 minutes at room temperature.
The reaction is initiated by adding 15 μl of a mixture of substrates constituted of biotinylated poly-(GAT) 1 μg/ml final and ATP 10 μM final in the presence of MgCl2 5 mM final for a final volume of 50 μl.
After incubation for 30 min at room temperature, the reaction is stopped with 30 μl of a mixture of Hepes 100 mM final pH 7, potassium fluoride 400 mM final, BSA 0.1% and EDTA 133 mM in the presence of 80 ng per well of antibodies Streptavidin ITS-XL665 Cis-Bio Int. and 18 ng per well of anti-phosphotyrosine PT66 labelled with europium cryptate.
After incubation for 2 hours at room temperature, reading is carried out at 2 wavelengths 620 nm and 665 nm in a Genios TECAN reader for the TRACE/HTRF technique and the percentage inhibition is calculated according to the 665/620 ratios.
A general note: Time-resolved FRET reads energy transfer from a long-lived donor to a nearby acceptor.

In the next assay the target is T1, MET (Homo sapiens, UniProt P08581).
T1 construct: endogenous in cells; host or cells: MKN45 cells
As to the kind of experiment: Test C: inhibition of the autophosphorylation of MET, ELISA technique (pppY1230, 1234, 1235), MKN45 cells. The assay is classed as cell-based. The gist of the method: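 MKN45 cells adhered 24 h, then treated 1 h with compound at 6 concentrations in duplicate, final range 10000 to 30 nM. Lysates assayed by phospho-MET (pY1230/1234/1235) sandwich ELISA with HRP chromogen read at 450 nm.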
(In general: ELISA stands for enzyme-linked immunosorbent assay.)

RON, sequence (Q04912 25-1400): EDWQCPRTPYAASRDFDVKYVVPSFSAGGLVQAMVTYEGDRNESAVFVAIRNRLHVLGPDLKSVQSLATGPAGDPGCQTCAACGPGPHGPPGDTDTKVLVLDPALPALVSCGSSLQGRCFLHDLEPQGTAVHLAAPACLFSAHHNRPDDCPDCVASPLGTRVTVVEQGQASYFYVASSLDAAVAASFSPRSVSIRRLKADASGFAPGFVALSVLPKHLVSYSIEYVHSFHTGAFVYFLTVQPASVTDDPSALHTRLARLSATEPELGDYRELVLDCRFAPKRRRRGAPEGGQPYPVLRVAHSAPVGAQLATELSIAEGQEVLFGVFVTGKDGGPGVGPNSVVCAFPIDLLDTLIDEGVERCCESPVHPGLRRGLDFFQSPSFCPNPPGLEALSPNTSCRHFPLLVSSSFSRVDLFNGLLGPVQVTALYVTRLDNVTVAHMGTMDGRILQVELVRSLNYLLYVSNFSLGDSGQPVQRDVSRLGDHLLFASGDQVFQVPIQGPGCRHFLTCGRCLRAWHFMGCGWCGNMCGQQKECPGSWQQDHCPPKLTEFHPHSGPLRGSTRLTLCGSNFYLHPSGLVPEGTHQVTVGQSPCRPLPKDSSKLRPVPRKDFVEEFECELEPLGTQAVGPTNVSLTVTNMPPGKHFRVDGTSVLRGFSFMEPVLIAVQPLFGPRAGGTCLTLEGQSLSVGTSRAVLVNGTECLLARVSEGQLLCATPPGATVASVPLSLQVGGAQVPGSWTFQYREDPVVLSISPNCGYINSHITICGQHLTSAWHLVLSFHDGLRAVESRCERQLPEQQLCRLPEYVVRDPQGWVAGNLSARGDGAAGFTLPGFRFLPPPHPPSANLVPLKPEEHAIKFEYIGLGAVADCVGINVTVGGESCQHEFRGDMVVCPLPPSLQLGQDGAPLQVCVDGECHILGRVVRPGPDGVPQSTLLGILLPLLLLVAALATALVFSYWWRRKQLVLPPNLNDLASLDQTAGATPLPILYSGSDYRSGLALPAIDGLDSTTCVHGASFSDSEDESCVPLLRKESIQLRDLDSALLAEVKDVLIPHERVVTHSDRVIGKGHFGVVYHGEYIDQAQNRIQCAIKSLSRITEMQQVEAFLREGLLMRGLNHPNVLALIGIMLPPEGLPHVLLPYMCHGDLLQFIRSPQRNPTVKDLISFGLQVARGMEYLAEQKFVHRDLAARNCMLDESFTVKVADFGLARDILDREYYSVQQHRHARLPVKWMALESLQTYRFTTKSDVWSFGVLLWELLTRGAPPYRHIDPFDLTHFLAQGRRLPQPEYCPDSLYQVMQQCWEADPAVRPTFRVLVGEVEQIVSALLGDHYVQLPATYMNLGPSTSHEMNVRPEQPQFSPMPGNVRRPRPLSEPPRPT
T1 sequence (P08581 25-1390): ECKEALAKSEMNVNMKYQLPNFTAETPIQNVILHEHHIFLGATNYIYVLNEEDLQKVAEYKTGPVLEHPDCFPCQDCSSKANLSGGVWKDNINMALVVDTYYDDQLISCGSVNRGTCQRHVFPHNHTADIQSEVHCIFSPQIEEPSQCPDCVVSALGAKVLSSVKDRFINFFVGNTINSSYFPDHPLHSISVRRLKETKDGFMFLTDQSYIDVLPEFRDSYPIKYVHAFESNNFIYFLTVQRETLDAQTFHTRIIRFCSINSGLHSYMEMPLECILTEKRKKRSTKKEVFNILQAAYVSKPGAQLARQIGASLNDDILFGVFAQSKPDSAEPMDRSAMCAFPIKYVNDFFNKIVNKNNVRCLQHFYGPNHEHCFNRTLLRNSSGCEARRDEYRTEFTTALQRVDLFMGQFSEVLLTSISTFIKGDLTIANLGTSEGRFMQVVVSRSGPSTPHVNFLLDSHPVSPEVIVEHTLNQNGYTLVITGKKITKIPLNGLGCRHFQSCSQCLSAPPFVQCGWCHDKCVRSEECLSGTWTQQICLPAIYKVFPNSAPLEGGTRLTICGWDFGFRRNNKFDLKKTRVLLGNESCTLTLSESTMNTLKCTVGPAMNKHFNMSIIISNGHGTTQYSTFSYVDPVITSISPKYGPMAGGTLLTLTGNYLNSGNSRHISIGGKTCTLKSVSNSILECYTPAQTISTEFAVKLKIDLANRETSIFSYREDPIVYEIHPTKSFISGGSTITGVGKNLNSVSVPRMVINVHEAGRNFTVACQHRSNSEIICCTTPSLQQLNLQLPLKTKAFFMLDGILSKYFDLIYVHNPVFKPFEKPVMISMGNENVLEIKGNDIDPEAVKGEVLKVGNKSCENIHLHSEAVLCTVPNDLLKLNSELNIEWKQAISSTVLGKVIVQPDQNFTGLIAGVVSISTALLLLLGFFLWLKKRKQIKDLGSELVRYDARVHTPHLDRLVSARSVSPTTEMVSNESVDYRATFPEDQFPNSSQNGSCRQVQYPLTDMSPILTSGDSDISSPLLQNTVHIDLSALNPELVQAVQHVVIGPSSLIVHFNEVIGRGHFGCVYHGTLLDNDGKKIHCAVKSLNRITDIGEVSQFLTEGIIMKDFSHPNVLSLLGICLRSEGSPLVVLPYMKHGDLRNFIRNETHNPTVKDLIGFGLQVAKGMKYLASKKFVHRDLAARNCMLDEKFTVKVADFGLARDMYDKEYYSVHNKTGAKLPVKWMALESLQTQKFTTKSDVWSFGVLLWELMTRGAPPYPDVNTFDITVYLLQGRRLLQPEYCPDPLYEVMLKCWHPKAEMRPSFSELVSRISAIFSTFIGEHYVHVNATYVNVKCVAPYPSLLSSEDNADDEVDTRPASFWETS

By IC50 is commonly meant the concentration that inhibits the measured activity by half. On to `CC(Oc1ccc2nc(NC(=O)NCCCn3cccc3)sc2c1)c1c(Cl)ccc(F)c1Cl` (stereo not drawn) [Example 40, 1-{6-[1-(2,6-dichloro-3-fluorophenyl)ethoxy]-1,3-benzothiazol-2-yl}-3-[3-(1H-pyrrol-1-yl)propyl]urea], for which the IC50 at RON and at MET was 500 to 10000 nM in each case.

Take `Cc1ccc(F)c(C(C)Oc2ccc3nc(NC(=O)NCCN4CCOCC4)sc3c2)c1F` (stereo not drawn) [Example 123, 1-{6-[1-(2,6-difluoro-3-methylphenyl)ethoxy]-1,3-benzothiazol-2-yl}-3-[2-(morpholin-4-yl)ethyl]urea]: the IC50 on RON and on MET was 500 to 10000 nM each time.

As to `CC(Oc1cc2sc(NC(=O)NCCN3CCOCC3)nc2cc1F)c1c(F)ccc(Cl)c1Cl` (stereo not drawn) [Example 111, 1-{6-[1-(2,3-dichloro-6-fluorophenyl)ethoxy]-5-fluoro-1,3-benzothiazol-2-yl}-3-[2-(morpholin-4-yl)ethyl]urea], the IC50 against RON and on MET was 500 to 10000 nM each time.

Regarding `CC(Oc1ccc2nc(NC(=O)NCCN3CCOCC3)[nH]c2c1)c1c(Cl)cccc1Cl` (stereo not drawn) [Example 2, 1-{6-[1-(2,6-dichlorophenyl)ethoxy]-1H-benzimidazol-2-yl}-3-(2-morpholin-4-ylethyl)urea], the IC50 against RON and on MET was 500 to 10000 nM in each case.

Turning to `CC(Oc1ccc2nc(NC(=O)NCCN3CCOCC3)sc2c1)c1c(Cl)cccc1Cl` (stereo not drawn) [Example 17, 1-{6-[1-(2,6-dichlorophenyl)ethoxy]-1,3-benzothiazol-2-yl}-3-(2-morpholin-4-ylethyl)urea], the IC50 was less than 500 nM against RON and 500 to 10000 nM against MET.

As to `CC(Oc1ccc2nc(NC(=O)NCCN3CCN(C)CC3)sc2c1)c1c(Cl)ccc(F)c1Cl` (stereo not drawn) [Example 55, 1-{6-[1-(2,6-dichloro-3-fluorophenyl)ethoxy]-1,3-benzothiazol-2-yl}-3-[2-(4-methylpiperazin-1-yl)ethyl]urea], the IC50 on RON and on MET was less than 500 nM in each case.

Turning to `CC(Oc1cc2sc(NC(=O)NCCN3CCOCC3)nc2cc1F)c1c(Cl)cccc1Cl` (stereo not drawn) [Example 29, 1-{6-[1-(2,6-dichlorophenyl)ethoxy]-5-fluoro-1,3-benzothiazol-2-yl}-3-(2-morpholin-4-ylethyl)urea], the IC50 at RON and against MET was less than 500 nM in each case.

Regarding `CC(Oc1ccc2nc(NC(=O)NCCN3CCCC3)sc2c1)c1c(F)ccc(Cl)c1Cl` (stereo not drawn) [Example 120, 1-{6-[1-(2,3-dichloro-6-fluorophenyl)ethoxy]-1,3-benzothiazol-2-yl}-3-[2-(pyrrolidin-1-yl)ethyl]urea], the IC50 on RON and against MET was less than 500 nM in each case.

Turning to `CC(Oc1ccc2nc(NC(=O)NCCCN3CCCCCC3)sc2c1)c1c(Cl)ccc(F)c1Cl` (stereo not drawn) [Example 48, 1-(3-azepan-1-ylpropyl)-3-{6-[1-(2,6-dichloro-3-fluorophenyl)ethoxy]-1,3-benzothiazol-2-yl}urea], the IC50 against RON and against MET was less than 500 nM each time.

For the compound `CC(Oc1ccc2nc(NC(=O)NCCN3CCOCC3)[nH]c2c1)c1cc(F)ccc1Cl` (stereo not drawn) [Example 3, 1-{6-[1-(2-chloro-5-fluorophenyl)ethoxy]-1H-benzimidazol-2-yl}-3-(2-morpholin-4-ylethyl)urea], the IC50 against RON and at MET was 500 to 10000 nM throughout.

Regarding `CC(Oc1ccc2nc(NC(=O)NCCN3CCOCC3)sc2c1)c1c(F)cccc1F` (stereo not drawn) [Example 18, 1-{6-[1-(2,6-difluorophenyl)ethoxy]-1,3-benzothiazol-2-yl}-3-(2-morpholin-4-ylethyl)urea], the IC50 against RON and against MET was 500 to 10000 nM throughout.

Turning to `CC(Oc1ccc2nc(NC(=O)NCc3ccncc3)sc2c1)c1c(Cl)ccc(F)c1Cl` (stereo not drawn) [Example 57, 1-{6-[1-(2,6-dichloro-3-fluorophenyl)ethoxy]-1,3-benzothiazol-2-yl}-3-(pyridin-4-ylmethyl)urea], the IC50 against RON and on MET was 500 to 10000 nM in each case.

In the case of `C[C@@H](Oc1cc2sc(NC(=O)NCCN3CCOCC3)nc2cc1F)c1c(Cl)ccc(F)c1Cl` (single isomer, unassigned) [Example 33, 1-{6-[(1R)-(2,6-dichloro-3-fluorophenyl)ethoxy]-5-fluoro-1,3-benzothiazol-2-yl}-3-(2-morpholin-4-ylethyl)urea or 1-{6-[(1S)-(2,6-dichloro-3-fluorophenyl)ethoxy]-5-fluoro-1,3-benzothiazol-2-yl}-3-(2-morpholin-4-ylethyl)urea], the values for the IC50 on RON and against MET were less than 500 nM and 500 to 10000 nM, respectively.

As to `CC(Oc1ccc2nc(NC(=O)NCCN3CCOCC3)sc2c1)c1c(Cl)ccc(F)c1Cl` (stereo not drawn) [Example 24, 1-{6-[1-(2,6-dichloro-3-fluorophenyl)ethoxy]-1,3-benzothiazol-2-yl}-3-(2-morpholin-4-ylethyl)urea], the IC50 against RON and on MET was less than 500 nM in each case.

Regarding `CC(Oc1ccc2nc(NC(=O)NCCN3CCOCC3)sc2c1)c1c(Cl)ccc(Cl)c1Cl` (stereo not drawn) [Example 124, 1-[2-(morpholin-4-yl)ethyl]-3-{6-[1-(2,3,6-trichlorophenyl)ethoxy]-1,3-benzothiazol-2-yl}urea], the results for the IC50 against RON and at MET were 500 to 10000 nM and less than 500 nM, respectively.

Regarding `CC(Oc1ccc2nc(NC(=O)NCCCN3CCN(Cc4ccccc4)CC3)sc2c1)c1c(Cl)ccc(F)c1Cl` (stereo not drawn) [Example 49, 1-[3-(4-benzylpiperazin-1-yl)propyl]-3-{6-[1-(2,6-dichloro-3-fluorophenyl)ethoxy]-1,3-benzothiazol-2-yl}urea], the IC50 on RON was 500 to 10000 nM; against MET, less than 500 nM.

For `CC(Oc1cc2sc(NC(=O)CCCN3CCCC3)nc2cc1F)c1c(Cl)ccc(F)c1Cl` (stereo not drawn) [Example 68, N-{6-[1-(2,6-dichloro-3-fluorophenyl)ethoxy]-5-fluoro-1,3-benzothiazol-2-yl}-4-(pyrrolidin-1-yl)butanamide], the half-inhibitory concentration (IC50) at RON was 500 to 10000 nM; at MET, less than 500 nM.

In the case of `CC(Oc1ccc2nc(NC(=O)NCCCN3CCCCC3)sc2c1)c1c(Cl)ccc(F)c1Cl` (stereo not drawn) [Example 44, 1-{6-[1-(2,6-dichloro-3-fluorophenyl)ethoxy]-1,3-benzothiazol-2-yl}-3-(3-piperidin-1-ylpropyl)urea], the IC50 is 500 to 10000 nM against RON and less than 500 nM against MET.

`CC(Oc1ccc2nc(NC(=O)NCCN3CCCCCC3)sc2c1)c1c(Cl)ccc(F)c1Cl` (stereo not drawn) [Example 54, 1-(2-azepan-1-ylethyl)-3-{6-[1-(2,6-dichloro-3-fluorophenyl)ethoxy]-1,3-benzothiazol-2-yl}urea]: the figures for the IC50 at RON and against MET were 500 to 10000 nM and less than 500 nM, respectively.

With `CC(Oc1cc2sc(NC(=O)NCCCN)nc2cc1F)c1c(Cl)ccc(F)c1Cl` (stereo not drawn) [Example 128, 1-(3-aminopropyl)-3-{6-[1-(2,6-dichloro-3-fluorophenyl)ethoxy]-5-fluoro-1,3-benzothiazol-2-yl}urea], the results for the IC50 on RON and against MET were 500 to 10000 nM and less than 500 nM, respectively.

Consider `CC(Oc1cc2sc(NC(=O)NCCN3CCOCC3)nc2cc1F)c1c(F)ccc(Cl)c1Cl` (single isomer, unassigned) [Example 112, 1-{6-[(1R*)-1-(2,3-dichloro-6-fluorophenyl)ethoxy]-5-fluoro-1,3-benzothiazol-2-yl}-3-[2-(morpholin-4-yl)ethyl]urea], for which the IC50 on RON and on MET was less than 500 nM throughout.

Source of the values: patent US8188078B2 (Sanofi-Aventis, priority 2007, dated 2012).
